Results as given in patent US4269848A, “5-Substituted indan-2-carboxylic acid and functional derivatives” (Lipha, Lyonnaise Industrielle Pharmaceutique, priority 1976, dated 1981).
Structures can show the parent of a compound that is named as a salt.

Columns and labels:
[1] = system: spasms of pain caused by the intraperitoneal injection of a solution of acetic acid; assay: Analgesic activity, acetic acid induced spasms of pain (Koster et al.); format: in vivo; settings: mouse, oral; dose reducing spasms of pain by 50%; read-out: AD50, Acetic Acid
Description: B--Analgesic activity in the mouse was determined by the method of Koster et al. (Fed. Proc. 1959, Vol. 18, page 412). The active dose 50 (AD50) value for various compounds in accordance with the present invention was determined, namely, that dose which, when administered orally, reduces by 50% the spasms of pain caused by the intraperitoneal injection of a solution of acetic acid.

[2] = Acute toxicity, LD 50 (oral route), mice; settings: mouse, in vivo
Text: A--The substances are of low toxicity. For example, the LD 50 value (oral route), determined in mice, of various compounds in accordance with the present invention are shown in column A of Table I.

[3] = system: erythema produced by ultra violet radiation; assay: Protective effect against erythema from ultra violet radiation (Winder et al.); format: in vivo, albino guinea pigs; settings: Cavia porcellus; albino guinea pig, oral; amount reducing erythema by 50%; read-out: AD50, U.V.
Description: D--The protective effect against inflammation resulting from exposure to radiation was determined in albino guinea pigs using the method of Winder et al (Arch. Inv. Pharmacodyn. 1958, Vol. 116, page 261). The AD50 value was determined for the test substance, namely the amount which, when administered to the animal orally, reduced by 50% the erythema produced by exposing the shaved dorsal skin of the guinea pig to ultra violet radiation.

platelets = assay: In vitro inhibition of platelet aggregation induced by collagen (Born); format: cell-based; settings: read-out: minimal active concentration, Platelet Aggregation Induced By Collagen
Description: E--The anti-inflammatory activity was also determined by the aggregation-inhibiting effect of the compounds in accordance with the present invention, in vitro, on platelets the aggregation of which was induced by collagen, in accordance with the method of Born (Journal of Physiology, 1962, Vol. 162, page 67). It is known that compounds which inhibit the activity or quantity of prostaglandin synthetase will inhibit the formation of prostaglandin PGE2 and the inflammatory and pyretic effect thereof. Since prostaglandin PGE2 also causes an increase in platelet aggregation, this test is an effective indication of anti-inflammatory and anti-pyretic activity due to inhibition of prostaglandin synthetase.

[4] = system: carrageenin-induced edema; assay: Anti-inflammatory activity, carrageenin-induced edema test (Winter et al.); format: in vivo; settings: rat, oral; dose inhibiting edema by 30%; read-out: AD30, Carrageenin
Text: The protection afforded, by oral administration of the compound to a rat against edema induced by injecting a suspension of carrageenin under the arch of the foot of the animal was investigated. The AD30 dose is that which inhibits the edema by 30%.

[5] = Experiment A: clinical case studies, anti-inflammatory activity, oral administration; format: in vivo
Description: The following clinical experimentation was carried out to clinically test various compounds in accordance with the present invention for their anti-inflammatory, analgesic and platelet aggregation or clumping inhibition activites. […] Diagonsis: Seropositive, classic, rheumatoid polyarthritis, radioclinical stage IV Treatment: 600 mg/day for 3 weeks Diagnosis: Ankylosing spondylarthrittis with signs of peripheral joint inflammation Treatment: 600 mg/day for 3 weeks Diagnosis: Psoriatic peripheral rheumatism Treatment: 600 mg/day for 15 days

[6] = Case 1, rheumatoid polyarthritis, oral 600 mg/day for 3 weeks
[7] = Case 2, ankylosing spondylarthritis, oral 600 mg/day for 3 weeks
[8] = Case 3, psoriatic peripheral rheumatism, oral 600 mg/day for 15 days

Row | SMILES | ED50 [1] [mg/kg] | LD50 [2] [mg/kg] | ED50 [3] [mg/kg] | minimal effective concentration (platelets) [µg/mL] | ED30 [4] [mg/kg] | further results
1 | O=C(c1ccccc1)c1ccc2c(c1)CC(C(=O)O)C2 (stereo not drawn) [5-benzoyl-indan-2-carboxylic acid] | 40 | 2100 | 40 | 2.5 | 18 | –
2 | Cc1ccc(C(=O)c2ccc3c(c2)CC(C(=O)O)C3)o1 (stereo not drawn) [5-(5'-Methyl-2'-furoyl)-indan-2-carboxylic acid] | 8 | 2400 | 16 | 1 | 10 | –
3 | CCN(CC)CCNC(=O)C1Cc2ccc(C(=O)c3cccs3)cc2C1 (stereo not drawn) [N-[2'-(N',N'-diethylaminoethyl)]5-(2'-thenoyl)-indan-2-carboxamide] | 2.5 | 660 | 10 | 0.25 | 8 | –
4 | CCOC(=O)C1Cc2ccc(C(=O)c3ccc(NC(C)=O)c(Cl)c3)cc2C1 (stereo not drawn) [Ethyl 5-(4'-acetamido-3'-chlorobenzoyl)-indan-2-carboxylate] | 35 | 3200 | 80 | 5 | 60 | –
5 | O=C(c1ccoc1)c1ccc2c(c1)CC(C(=O)O)C2 (stereo not drawn) [5-(3'-furoyl)-indan-2-carboxylic acid, 5-(3'-Furoyl)-indan-2-carboxylic acid] | 16 | 2400 | 18 | 5 | 20 | –
6 | Cc1ccc(C(=O)c2ccc3c(c2)CC(C(=O)O)C3)s1 (stereo not drawn) [5-(5'-Methyl-2'-thenoyl)-indan-2-carboxylic acid] | 12 | 3000 | 14 | 1 | 7.5 | Tolerance ([5]; Case 1, oral 600 mg/day for 3 weeks): Very good clinical and biological tolerance; Conclusion [5, 6]: Good result; erythrocyte sedimentation rate (ESR) [5, 6]: decrease; mobility [5, 6]: Improved mobility; morning stiffness [5, 6]: Decrease; peripheral pain [5, 6]: Decrease; Conclusion [5, 7]: Good result; analgesic effect [5, 7]: Good analgesic effect; articular perimeters [5, 7]: decrease in articular perimeters; effectiveness compared with phenylbutazone [5, 7]: As effective as phenylbutazone; mobility [5, 7]: Good mobility; Tolerance ([5]; Case 2, oral 600 mg/day for 3 weeks): Good clinical and biological tolerance; Tolerance ([5]; Case 3, oral 600 mg/day for 15 days): Good clinical and biological tolerance; Conclusion [5, 8]: Very good result; articular perimeter [5, 8]: decrease in articular perimeter; local heat [5, 8]: decrease in local heat; morning pain [5, 8]: Decrease in morning pain
7 | O=C(c1ccc2c(c1)CC(C(=O)O)C2)c1cc(Cl)c(Cl)s1 (stereo not drawn) [5-(4',5'-dichloro-2'-thenoyl)-indan-2-carboxylic acid] | 30 | 180 | 90 | 7.5 | 42 | –
8 | CN(C)S(=O)(=O)c1ccc(C(=O)c2ccc3c(c2)CC(C(=O)O)C3)cc1 (stereo not drawn) [5-(p-dimethylaminosulfonylbenzoyl)-indan-2-carboxylic acid] | 80 | 2600 | > 300 | 10 | 160 | –
9 | CS(=O)(=O)c1ccc(C(=O)c2ccc3c(c2)CC(C(=O)O)C3)cc1 (stereo not drawn) [5-(p-methylsulfonylbenzoyl)-indan-2-carboxylic acid] | 35 | 2800 | 10 | 1 | 40 | –
10 | CCN(CC)CCOC(=O)C1Cc2ccc(C(=O)c3cccs3)cc2C1 (stereo not drawn) [2'-(N,N-diethylaminoethyl) 5-(2'-thenoyl)-indan-2-carboxylate, hydrochloride] | 4 | 2160 | 10 | 0.25 | 8 | –
11 | O=C(c1ccc2c(c1)CC(C(=O)O)C2)c1ccco1 (stereo not drawn) [5-(2'-furoyl)-indan-2-carboxylic acid, 5-(2'-Furoyl)-indan-2-carboxylic acid] | 11 | 1000 | 14 | 1 | 23 | –
12 | CCN(CC)CCNC(=O)C1Cc2ccc(C(=O)c3ccccc3)cc2C1 (stereo not drawn) [N-[2'-(N',N'-diethylaminoethyl)] 5-benzoyl-indan-2-carboxamide] | 30 | 1100 | 25 | 2.5 | 9 | –
13 | Cc1ccsc1C(=O)c1ccc2c(c1)CC(C(=O)O)C2 (stereo not drawn) [5-(3'-Methyl-2'-thenoyl)-indan-2-carboxylic acid] | 37 | 1200 | 25 | 10 | 26 | –
14 | COC(=O)C1Cc2ccc(C(=O)c3ccco3)cc2C1 (stereo not drawn) [methyl 5-(2'-furoyl)-indan-2-carboxylate, Methyl 5-(2'-furoyl)-indan-2-carboxylate] | 9 | 3200 | 19 | 1 | 13 | –
15 | CN(C)c1ccc(C(=O)c2ccc3c(c2)CC(C(=O)O)C3)cc1 (stereo not drawn) [5-(4'-dimethylaminobenzoyl)-indan-2-carboxylic acid] | 3 | 960 | 20 | 0.5 | 14 | –
16 | CCN(CC)CCOC(=O)C1Cc2ccc(C(=O)c3ccco3)cc2C1 (stereo not drawn) [2'-(N,N-diethylaminoethyl) 5-(2'-furoyl)-indan-2-carboxylate] | 8 | 1200 | 20 | 1 | 18 | –
17 | COc1ccc(C(=O)c2ccc3c(c2)CC(C(=O)O)C3)cc1 (stereo not drawn) [5-(4'-Methoxybenzoyl)-indan-2-carboxylic acid] | 6 | 650 | 34 | 2.5 | 13 | –
18 | NS(=O)(=O)c1ccc(C(=O)c2ccc3c(c2)CC(C(=O)O)C3)cc1 (stereo not drawn) [5-(p-sulfamidobenzoyl)-indan-2-carboxylic acid] | 25 | > 3200 | 90 | 5 | 43 | –
19 | CCN(CC)CCNC(=O)C1Cc2ccc(C(=O)c3cc(Cl)ccc3Cl)cc2C1 (stereo not drawn) [N-[2'-(N',N'-diethylaminoethyl)]5-(2',5'-dichlorobenzoyl)-indan-2-carboxamide] | 15 | 720 | 50 | 2.5 | 25 | –
20 | O=C(c1ccc2c(c1)CC(C(=O)O)C2)c1cccs1 (stereo not drawn) [5-(2'-thenoyl)-indan-2-carboxylic acid] | 6.5 | 1200 | 21 | 2.5 | 10 | –
